Measurements from the NIST ThermoML archive (doi:10.1016/j.jct.2016.07.041).

Assay: xn = mol fraction of the nth substance listed
Details: 101 kPa, Liquid; for viscosity: Capillary tube (Ostwald / Ubbelohde) method; for mass density: Vibrating tube method

CCCCn1cc[n+](C)c1.F[B-](F)(F)F [1-butyl-3-methylimidazolium tetrafluoroborate] + O
Details | mass density, 293.15 K [kg/m3] | mass density, 303.15 K [kg/m3] | mass density, 313.15 K [kg/m3] | mass density, 323.15 K [kg/m3] | mass density, 333.15 K [kg/m3] | viscosity, 293.15 K [mPa·s] | viscosity, 303.15 K [mPa·s] | viscosity, 313.15 K [mPa·s] | viscosity, 323.15 K [mPa·s] | viscosity, 333.15 K [mPa·s]
x1 = 0.0998 | 1103.7 | 1097.3 | 1090.3 | 1083.4 | 1076.4 | 3.23 | 2.41 | 1.88 | 1.51 | 1.24
x1 = 0.1998 | 1141.5 | 1134.5 | 1126.9 | 1119.6 | 1112.2 | 5.52 | 4.12 | 3.2 | 2.56 | 2.1
x1 = 0.2994 | 1161.1 | 1153.8 | 1146.3 | 1139 | 1131.5 | 8.41 | 6.21 | 4.78 | 3.79 | 3.1
x1 = 0.3992 | 1173.4 | 1166 | 1158.7 | 1151.4 | 1144 | 12.3 | 8.95 | 6.79 | 5.34 | 4.31
x1 = 0.5005 | 1182.3 | 1175 | 1167.7 | 1160.5 | 1153.3 | 17.96 | 12.87 | 9.63 | 7.5 | 6
x1 = 0.5984 | 1188.9 | 1181.6 | 1174.3 | 1167.1 | 1160.1 | 25.98 | 18.1 | 13.27 | 10.11 | 7.99
x1 = 0.6985 | 1194.2 | 1187 | 1179.8 | 1172.6 | 1165.7 | 39.21 | 26.48 | 18.9 | 14.06 | 10.79
x1 = 0.7988 | 1198.5 | 1191.4 | 1184.3 | 1177.1 | 1170 | 59.53 | 38.86 | 26.55 | 19.05 | 14.31
x1 = 0.8982 | 1202 | 1195 | 1187.8 | 1180.6 | 1173.6 | 89.35 | 55.67 | 37.01 | 25.16 | 18.53
x1 = 1 | 1205.1 | 1198 | 1190.8 | 1183.7 | 1176.8 | 139.12 | 82.49 | 52.33 | 35.16 | 24.69
